According to ChEMBL document CHEMBL4715750, “Synthesis and in vitro, ex-vivo and in vivo activity of hybrid compounds linking a potent ROS and RNS scavenger activity with diverse substrates addressed to pass across the blood-brain barrier” (Eur J Med Chem, 2016):

Tests used:
[1] = Cytotoxicity against human SH-SY5Y cells assessed as cell viability at 12.5 uM measured after 2 hrs by MTT assay relative to control; type: cell-based; conditions: read-out: Activity
[2] = Cytotoxicity against human SH-SY5Y cells assessed as cell viability at 25 uM measured after 24 hrs by MTT assay relative to control; type: cell-based; conditions: read-out: Activity
[3] = Cytotoxicity against human SH-SY5Y cells assessed as cell viability at 6.3 uM measured after 24 hrs by MTT assay relative to control; type: cell-based; conditions: read-out: Activity
[4] = Cytotoxicity against human SH-SY5Y cells assessed as cell viability at 3.1 uM measured after 24 hrs by MTT assay relative to control; type: cell-based; conditions: read-out: Activity
[5] = Cytotoxicity against human SH-SY5Y cells assessed as cell viability at 12.5 uM measured after 24 hrs by MTT assay relative to control; type: cell-based; conditions: read-out: Activity
[6] = Cytotoxicity against human SH-SY5Y cells assessed as cell viability at 50 uM measured after 2 hrs by MTT assay relative to control; type: cell-based; conditions: read-out: Activity
[7] = Cytotoxicity against human SH-SY5Y cells assessed as cell viability at 100 uM measured after 24 hrs by MTT assay relative to control; type: cell-based; conditions: read-out: Activity
[8] = Cytotoxicity against human SH-SY5Y cells assessed as cell viability at 1.6 uM measured after 2 hrs by MTT assay relative to control; type: cell-based; conditions: read-out: Activity
[9] = Cytotoxicity against human SH-SY5Y cells assessed as cell viability at 25 uM measured after 2 hrs by MTT assay relative to control; type: cell-based; conditions: read-out: Activity
[10] = Cytotoxicity against human SH-SY5Y cells assessed as cell viability at 1.6 uM measured after 24 hrs by MTT assay relative to control; type: cell-based; conditions: read-out: Activity
[11] = Cytotoxicity against human SH-SY5Y cells assessed as cell viability at 0.8 uM measured after 2 hrs by MTT assay relative to control; type: cell-based; conditions: read-out: Activity
[12] = Cytotoxicity against human SH-SY5Y cells assessed as cell viability at 0.8 uM measured after 24 hrs by MTT assay relative to control; type: cell-based; conditions: read-out: Activity
[13] = Cytotoxicity against human SH-SY5Y cells assessed as cell viability at 3.1 uM measured after 2 hrs by MTT assay relative to control; type: cell-based; conditions: read-out: Activity
[14] = Cytotoxicity against human SH-SY5Y cells assessed as cell viability at 6.3 uM measured after 2 hrs by MTT assay relative to control; type: cell-based; conditions: read-out: Activity
[15] = Cytotoxicity against human SH-SY5Y cells assessed as cell viability at 50 uM measured after 24 hrs by MTT assay relative to control; type: cell-based; conditions: read-out: Activity
[16] = Antioxidant activity assessed as DPPH radical scavenging activity incubated for 60 mins in absence of light; type: functional
[17] = test system: SH-SY5Y; experiment: Antioxidant activity in human SH-SY5Y cells assessed as inhibition of H2O2-induced DCFH oxidation measured after 1 hr by DCFH-DA dye based fluorescence assay; type: functional, cell-based
[18] = Cytotoxicity against human SH-SY5Y cells assessed as cell viability at 100 uM measured after 2 hrs by MTT assay relative to control; type: cell-based; conditions: read-out: Activity
[19] = Permeability of the compound at pH 7.4 by PAMPA-BBB assay; type: ADME; conditions: read-out: permeability
[20] = Drug concentration in Sprague-Dawley rat plasma at 0.2 mmol/Kg, ip measured after 1 hr by HPLC based fluorimetric analysis; type: ADME, organism-based

Row | SMILES | IC50 [16] [µM] | IC50 [17] [µM] | Papp [19] [×10⁻⁶ cm/s] | viability at 2 h, 12.5 µM [1] [%] | viability at 24 h, 25 µM [2] [%] | viability at 24 h, 6.3 µM [3] [%] | viability at 24 h, 3.1 µM [4] [%] | viability at 24 h, 12.5 µM [5] [%] | viability at 2 h, 50 µM [6] [%] | viability at 24 h, 100 µM [7] [%] | viability at 2 h, 1.6 µM [8] [%] | viability at 2 h, 25 µM [9] [%] | viability at 24 h, 1.6 µM [10] [%] | viability at 2 h, 0.8 µM [11] [%] | viability at 24 h, 0.8 µM [12] [%] | viability at 2 h, 3.1 µM [13] [%] | viability at 2 h, 6.3 µM [14] [%] | viability at 24 h, 50 µM [15] [%] | Activity [17] | viability at 2 h, 100 µM [18] [%] | further results
1 | COc1cc2c(cc1O)CCC(C)(CC(=O)N1CCC[C@H]1C(=O)O)O2 (stereo partly drawn) | 19.1 | 41.4 | 0.04 | 100 | 95.8 | 100 | 100 | 100 | 100 | 79.6 | 99.2 | 100 | 93.2 | 100 | 92.8 | 100 | 98.8 | 100 | Dose-dependent effect | 78.8 | –
2 | Cc1c(C)c2c(c(C)c1O)CCC(C)(C(=O)O)O2 (stereo not drawn) [TROLOX] | 15.7 | 82.3 | 1.04 | 95 | 86.4 | 83.7 | 79.6 | 82.8 | 92.4 | 68 | 88.5 | 99 | 87.6 | 93.2 | 84.6 | 97.6 | 97.4 | 81.9 | Dose-dependent effect | 86.5 | –
3 | COc1cc2c(cc1O)CCC(C)(CC(=O)N[C@@H](Cc1ccc(O)cc1)C(=O)O)O2 (stereo partly drawn) | 19.6 | 50 | – | 92.5 | 82.7 | 83.3 | 89.9 | 81.6 | 95.7 | 67.5 | 94.5 | 95.5 | 89.5 | 92.2 | 79.7 | 100 | 99.7 | 78.6 | Dose-dependent effect | 75.8 | concentration at 1 h [20]: 7 µM

Continued, in another order:

Row | IC50 [16] [µM] | IC50 [17] [µM] | Papp [19] [×10⁻⁶ cm/s] | SMILES | viability at 2 h, 12.5 µM [1] [%] | viability at 24 h, 25 µM [2] [%] | viability at 24 h, 6.3 µM [3] [%] | viability at 24 h, 3.1 µM [4] [%] | viability at 24 h, 12.5 µM [5] [%] | viability at 2 h, 50 µM [6] [%] | viability at 24 h, 100 µM [7] [%] | viability at 2 h, 1.6 µM [8] [%] | viability at 2 h, 25 µM [9] [%] | viability at 24 h, 1.6 µM [10] [%] | viability at 2 h, 0.8 µM [11] [%] | viability at 24 h, 0.8 µM [12] [%] | viability at 2 h, 3.1 µM [13] [%] | viability at 2 h, 6.3 µM [14] [%] | viability at 24 h, 50 µM [15] [%] | Activity [17] | viability at 2 h, 100 µM [18] [%] | further results
4 | 16.2 | > 300 | – | COc1cc2c(cc1O)CCC(C)(CCNC(=O)/C=C(C)/C=C/C=C(C)/C=C/C1=C(C)CCCC1(C)C)O2 (stereo not drawn) | 100 | 91.2 | 100 | 100 | 100 | 97.4 | 47.9 | 93.6 | 100 | 99.1 | 87.4 | 89.6 | 97.3 | 90.5 | 91.7 | Dose-dependent effect | 57.7 | –
5 | 8.4 | 32.3 | – | COc1cc2c(cc1O)CCC(C)(CC(=O)O)O2 (stereo not drawn) | 100 | 92.5 | 100 | 100 | 92 | 100 | 53.1 | 100 | 100 | 100 | 100 | 90.2 | 100 | 100 | 61 | Dose-dependent effect | 79.9 | –
6 | 6.9 | 21.6 | 0.2 | COc1cc2c(cc1O)CCC(C)(CC(=O)NCCc1ccc(O)c(O)c1)O2 (stereo not drawn) | 100 | 79.1 | 98.4 | 94.8 | 84.2 | 100 | 58.4 | 100 | 100 | 88.9 | 100 | 100 | 100 | 100 | 77.5 | Dose-dependent effect | 100 | –
